# Columns and labels:
# Format in all cases: binding
# [1] = biological target: T1, SW480 colon carcinoma cells lysate proteins (Homo sapiens, UniProt Q9Y2B0); conditions: PreyGene CNPY2; SW480 cells
# T1 sequence (Q9Y2B0 21-182): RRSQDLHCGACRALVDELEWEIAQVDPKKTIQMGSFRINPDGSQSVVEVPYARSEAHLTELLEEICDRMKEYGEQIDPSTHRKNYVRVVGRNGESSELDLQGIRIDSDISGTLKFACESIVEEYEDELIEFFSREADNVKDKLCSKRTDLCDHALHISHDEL
# [2] = biological target: T2, SW480 colon carcinoma cells lysate proteins (Homo sapiens, UniProt B2RPK0); conditions: PreyGene HMGB1P1
# T2 sequence (B2RPK0 1-211): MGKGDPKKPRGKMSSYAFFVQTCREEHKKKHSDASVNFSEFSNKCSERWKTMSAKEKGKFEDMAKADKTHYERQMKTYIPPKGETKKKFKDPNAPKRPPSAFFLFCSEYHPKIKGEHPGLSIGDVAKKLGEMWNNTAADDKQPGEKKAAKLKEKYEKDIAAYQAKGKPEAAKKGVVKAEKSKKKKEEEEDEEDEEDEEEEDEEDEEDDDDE
# [3] = biological target: SW480 colon carcinoma cells lysate proteins (Homo sapiens, UniProt Q7Z406); conditions: PreyGene MYH14; SW480 cells
# [4] = biological target: T3, SW480 colon carcinoma cells lysate proteins (Homo sapiens, UniProt Q15691); conditions: PreyGene MAPRE1
# T3 sequence (Q15691 1-268): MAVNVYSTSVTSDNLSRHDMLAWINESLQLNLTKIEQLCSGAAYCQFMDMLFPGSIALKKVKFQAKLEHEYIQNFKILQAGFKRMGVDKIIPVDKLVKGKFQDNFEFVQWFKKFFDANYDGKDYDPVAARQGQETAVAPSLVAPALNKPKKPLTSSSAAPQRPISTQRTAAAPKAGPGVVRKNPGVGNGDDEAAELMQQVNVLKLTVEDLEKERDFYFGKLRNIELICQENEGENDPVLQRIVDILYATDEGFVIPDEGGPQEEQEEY
# [5] = biological target: SW480 colon carcinoma cells lysate proteins (Homo sapiens, UniProt P67809); conditions: PreyGene YBX1; SW480 cells
# [6] = biological target: T4, SW480 colon carcinoma cells lysate proteins (Homo sapiens, UniProt P08758); conditions: PreyGene ANXA5
# T4 sequence (P08758 1-320): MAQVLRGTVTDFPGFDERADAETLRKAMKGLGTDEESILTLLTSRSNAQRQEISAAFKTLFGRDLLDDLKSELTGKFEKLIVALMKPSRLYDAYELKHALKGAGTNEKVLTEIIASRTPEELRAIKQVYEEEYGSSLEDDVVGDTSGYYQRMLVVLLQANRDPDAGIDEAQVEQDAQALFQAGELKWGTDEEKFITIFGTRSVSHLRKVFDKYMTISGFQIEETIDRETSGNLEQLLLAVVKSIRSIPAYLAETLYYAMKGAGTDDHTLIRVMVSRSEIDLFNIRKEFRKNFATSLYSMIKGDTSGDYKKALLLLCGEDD
# [7] = biological target: SW480 colon carcinoma cells lysate proteins (Homo sapiens, UniProt Q9BZK3); conditions: PreyGene NACAP1; SW480 cells
# [8] = biological target: T5, SW480 colon carcinoma cells lysate proteins (Homo sapiens, UniProt P32119); conditions: PreyGene PRDX2
# T5 sequence (P32119 1-198): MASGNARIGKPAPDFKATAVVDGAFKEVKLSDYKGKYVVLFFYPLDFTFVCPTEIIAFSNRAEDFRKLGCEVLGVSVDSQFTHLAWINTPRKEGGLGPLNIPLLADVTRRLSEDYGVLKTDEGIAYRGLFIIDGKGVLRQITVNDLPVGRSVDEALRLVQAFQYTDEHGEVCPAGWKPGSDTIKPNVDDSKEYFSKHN
# [9] = biological target: SW480 colon carcinoma cells lysate proteins (Homo sapiens, UniProt P06744); conditions: PreyGene GPI
# [10] = biological target: T6, SW480 colon carcinoma cells lysate proteins (Homo sapiens, UniProt Q9UJZ1); conditions: PreyGene STOML2; SW480 cells
# T6 sequence (Q9UJZ1 29-356): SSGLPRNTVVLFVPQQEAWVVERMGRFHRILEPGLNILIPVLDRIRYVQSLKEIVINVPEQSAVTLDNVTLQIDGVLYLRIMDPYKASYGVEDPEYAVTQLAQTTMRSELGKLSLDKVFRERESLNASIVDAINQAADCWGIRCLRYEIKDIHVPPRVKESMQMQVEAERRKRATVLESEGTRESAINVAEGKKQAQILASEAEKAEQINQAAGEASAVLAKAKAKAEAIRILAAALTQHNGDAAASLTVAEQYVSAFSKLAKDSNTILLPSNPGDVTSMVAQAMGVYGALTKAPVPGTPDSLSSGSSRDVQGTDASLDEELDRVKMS
# Sequence of SW480 colon carcinoma cells lysate proteins (Homo sapiens, UniProt Q7Z406) (Q7Z406 whole entry): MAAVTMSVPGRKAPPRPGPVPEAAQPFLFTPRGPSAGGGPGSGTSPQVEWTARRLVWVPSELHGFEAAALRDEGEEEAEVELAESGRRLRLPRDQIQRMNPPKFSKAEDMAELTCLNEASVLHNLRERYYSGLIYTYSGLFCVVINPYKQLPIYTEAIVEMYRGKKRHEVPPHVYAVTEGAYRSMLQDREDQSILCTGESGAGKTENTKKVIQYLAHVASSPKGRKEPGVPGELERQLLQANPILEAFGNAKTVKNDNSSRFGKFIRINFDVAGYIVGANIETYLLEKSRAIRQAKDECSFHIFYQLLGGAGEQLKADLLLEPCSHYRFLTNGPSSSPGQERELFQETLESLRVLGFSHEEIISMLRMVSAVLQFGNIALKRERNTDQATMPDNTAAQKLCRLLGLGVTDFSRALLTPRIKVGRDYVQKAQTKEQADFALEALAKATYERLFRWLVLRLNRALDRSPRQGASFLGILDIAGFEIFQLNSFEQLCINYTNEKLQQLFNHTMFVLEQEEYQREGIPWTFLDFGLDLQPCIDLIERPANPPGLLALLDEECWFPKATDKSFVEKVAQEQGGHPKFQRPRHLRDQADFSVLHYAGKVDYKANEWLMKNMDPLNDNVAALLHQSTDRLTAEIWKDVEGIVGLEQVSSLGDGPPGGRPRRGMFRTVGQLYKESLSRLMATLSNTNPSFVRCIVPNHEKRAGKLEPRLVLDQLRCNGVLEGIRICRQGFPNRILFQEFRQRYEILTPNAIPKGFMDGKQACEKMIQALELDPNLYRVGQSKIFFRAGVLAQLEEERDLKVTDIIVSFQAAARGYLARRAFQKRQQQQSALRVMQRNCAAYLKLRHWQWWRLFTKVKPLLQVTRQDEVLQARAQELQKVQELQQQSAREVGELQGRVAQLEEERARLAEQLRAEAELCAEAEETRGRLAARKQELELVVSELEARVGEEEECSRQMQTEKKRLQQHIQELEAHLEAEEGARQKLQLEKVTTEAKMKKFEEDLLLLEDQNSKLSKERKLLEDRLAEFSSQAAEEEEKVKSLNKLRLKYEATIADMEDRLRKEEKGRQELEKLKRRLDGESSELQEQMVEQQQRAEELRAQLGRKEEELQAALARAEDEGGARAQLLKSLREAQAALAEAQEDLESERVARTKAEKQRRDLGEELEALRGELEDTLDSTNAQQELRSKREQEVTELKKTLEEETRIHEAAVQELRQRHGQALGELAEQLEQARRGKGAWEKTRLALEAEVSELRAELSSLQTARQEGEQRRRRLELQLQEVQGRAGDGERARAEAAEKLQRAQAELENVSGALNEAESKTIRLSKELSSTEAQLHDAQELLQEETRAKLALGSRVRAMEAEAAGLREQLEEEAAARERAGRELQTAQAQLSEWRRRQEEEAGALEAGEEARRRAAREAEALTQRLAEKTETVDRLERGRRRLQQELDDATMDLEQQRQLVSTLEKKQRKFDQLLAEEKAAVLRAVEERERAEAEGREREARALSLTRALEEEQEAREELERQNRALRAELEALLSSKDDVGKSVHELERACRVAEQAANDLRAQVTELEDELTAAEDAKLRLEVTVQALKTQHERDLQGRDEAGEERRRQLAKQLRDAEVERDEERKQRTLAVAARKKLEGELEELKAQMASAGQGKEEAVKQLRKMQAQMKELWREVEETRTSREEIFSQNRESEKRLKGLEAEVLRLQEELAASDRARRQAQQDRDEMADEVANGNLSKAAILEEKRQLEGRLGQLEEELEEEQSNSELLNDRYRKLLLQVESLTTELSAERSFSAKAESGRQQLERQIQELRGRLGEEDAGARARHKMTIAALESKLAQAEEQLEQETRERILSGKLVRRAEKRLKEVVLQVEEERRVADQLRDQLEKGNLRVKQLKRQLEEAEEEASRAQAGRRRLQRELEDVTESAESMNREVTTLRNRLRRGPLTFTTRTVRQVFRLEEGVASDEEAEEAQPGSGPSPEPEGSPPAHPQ
# Sequence of SW480 colon carcinoma cells lysate proteins (Homo sapiens, UniProt P67809) (P67809 whole entry): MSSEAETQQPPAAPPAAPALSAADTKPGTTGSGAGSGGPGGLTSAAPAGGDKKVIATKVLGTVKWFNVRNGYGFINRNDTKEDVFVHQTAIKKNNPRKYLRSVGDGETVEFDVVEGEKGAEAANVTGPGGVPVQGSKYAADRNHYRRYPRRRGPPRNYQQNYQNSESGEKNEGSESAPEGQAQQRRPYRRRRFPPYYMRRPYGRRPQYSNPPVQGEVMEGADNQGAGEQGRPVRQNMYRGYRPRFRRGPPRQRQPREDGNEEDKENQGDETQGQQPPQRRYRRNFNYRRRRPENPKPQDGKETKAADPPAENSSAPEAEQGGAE
smiles,measurement,setting,value
C[C@H](Oc1cc(-c2cnn(C3CCNCC3)c2)cnc1N)c1c(Cl)ccc(F)c1Cl [(5)-crizotinib],AvgP,[1],0
same,SC.Exp. 1-1,[1],1
same,SC.Exp. 1-2,[1],0
same,SC.Exp. 2-1,[1],0
same,SC.Exp. 2-2,[1],0
same,SC.Exp. Sum,[1],1
same,AvgP,[2],0.3829
same,SC.Exp. 1-1,[2],2
same,SC.Exp. 1-2,[2],2
same,SC.Exp. 2-1,[2],0
same,SC.Exp. 2-2,[2],0
same,Sum (SC.Exp.),[2],4
same,AvgP,[3],0
same,SC.Exp. 1-1,[3],1
same,SC.Exp. 1-2,[3],1
same,SC.Exp. 2-1,[3],0
same,SC.Exp. 2-2,[3],0
same,SC.Exp. Sum,[3],2
same,AvgP,[4],0.4084
same,SC.Exp. 1-1,[4],2
same,SC.Exp. 1-2,[4],3
same,SC.Exp. 2-1,[4],0
same,SC.Exp. 2-2,[4],0
same,Sum (SC.Exp.),[4],5
same,AvgP,[5],0
same,SC.Exp. 1-1,[5],2
same,SC.Exp. 1-2,[5],2
same,SC.Exp. 2-1,[5],2
same,SC.Exp. 2-2,[5],2
same,SC.Exp. Sum,[5],8
same,AvgP,[6],0.4332
same,SC.Exp. 1-1,[6],9
same,SC.Exp. 1-2,[6],6
same,SC.Exp. 2-1,[6],0
same,SC.Exp. 2-2,[6],0
same,Sum (SC.Exp.),[6],15
same,AvgP,[7],0
same,SC.Exp. 1-1,[7],0
same,SC.Exp. 1-2,[7],0
same,SC.Exp. 2-1,[7],1
same,SC.Exp. 2-2,[7],0
same,SC.Exp. Sum,[7],1
same,AvgP,[8],0.3255
same,SC.Exp. 1-1,[8],4
same,SC.Exp. 1-2,[8],4
same,SC.Exp. 2-1,[8],0
same,SC.Exp. 2-2,[8],0
same,Sum (SC.Exp.),[8],8
same,AvgP,[9],0.3986
same,SC.Exp. 1-1,[9],4
same,SC.Exp. 1-2,[9],5
same,SC.Exp. 2-1,[9],0
same,SC.Exp. 2-2,[9],0
same,Sum (SC.Exp.),[9],9
same,AvgP,[10],0
same,SC.Exp. 1-1,[10],5
same,SC.Exp. 1-2,[10],4
same,SC.Exp. 2-1,[10],2
same,SC.Exp. 2-2,[10],2
same,SC.Exp. Sum,[10],13
